Data reported in patent US5714499A, “3-amino-2-oxo-1-piperidineacetic derivatives containing an arginine mimic as enzyme inhibitors” (Corvas International, Inc., priority 1994, dated 1998).
Read-outs that look alike come from different tables or passages of the source.

Assays:
[1] = biological target: plasmin (Homo sapiens, UniProt P00747); assay: Plasmin assay (specificity determination); assay type: biochemical; conditions: maximal concentration 25,000 nM, mean of at least two independent experiments
Sequence of plasmin (P00747 581-810 limits assumed): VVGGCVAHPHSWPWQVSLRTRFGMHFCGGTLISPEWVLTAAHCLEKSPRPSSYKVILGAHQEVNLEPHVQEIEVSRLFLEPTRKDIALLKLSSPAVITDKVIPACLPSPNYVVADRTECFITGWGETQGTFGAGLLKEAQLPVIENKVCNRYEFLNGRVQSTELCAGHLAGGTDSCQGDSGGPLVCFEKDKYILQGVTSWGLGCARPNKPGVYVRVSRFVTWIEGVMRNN
Sequence of plasmin (P00747 97-580 limits assumed): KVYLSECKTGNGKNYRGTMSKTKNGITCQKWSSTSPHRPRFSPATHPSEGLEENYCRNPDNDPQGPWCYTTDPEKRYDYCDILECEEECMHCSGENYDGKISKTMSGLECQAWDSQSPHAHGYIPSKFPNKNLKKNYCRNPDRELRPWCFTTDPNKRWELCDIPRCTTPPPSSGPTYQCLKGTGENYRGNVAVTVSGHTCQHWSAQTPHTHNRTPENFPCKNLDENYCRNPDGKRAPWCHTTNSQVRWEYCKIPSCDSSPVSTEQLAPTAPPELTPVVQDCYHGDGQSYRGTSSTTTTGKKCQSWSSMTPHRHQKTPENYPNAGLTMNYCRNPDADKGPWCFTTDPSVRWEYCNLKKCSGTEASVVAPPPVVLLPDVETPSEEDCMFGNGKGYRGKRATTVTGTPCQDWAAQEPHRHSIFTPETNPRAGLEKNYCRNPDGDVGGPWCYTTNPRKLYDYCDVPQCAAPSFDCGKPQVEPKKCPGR
Protocol: Plasmin catalytic activity was determined using the chromogenic substrate, S-2251 [D-valyl-L-leucyl-L-lysine-p-nitroanilide], which was obtained from Kabi Diagnostica.

[2] = tested on: rat plasma clotting (APTT); assay: Ex vivo anticoagulant effect, APTT in citrated rat plasma
Source text: (§1) The control clotting times (0 inhibitor) for rat and human plasma were 19 seconds and 29 seconds, respectively. The concentration of BzlSO2 -norVal(cyclo)-Gly-Ala(3-guanPip)al which caused a doubling of the control clotting time in rat and human plasma was 12.7 micromolar and 9.1 micromolar, respectively. The data is the mean of two independent determinations.
(§2) Fresh frozen citrated pooled normal human plasma was obtained from George King Biomedical, Overland Park, Kans. Pooled normal rat plasma was prepared from citrated whole blood collected from anesthetized rats using standard procedures. The plasma was flash frozen and stored at -80° C. until use. Measurements APTT was made using the Coag-A-Mate RA4 automated coagulometer (General Diagnostics, Organon Technica, Oklahoma City, Okla.) using the Automated APTT reagent (Organon Technica, Durham, N.C.) as the initiator of clotting according to the manufacturers instructions. The assay was conducted by making a series of dilution's of Isomer B in rapidly thawed plasma followed by adding 200 microliters to the wells of the assay carousel.

[3] = tested on: human plasma clotting (APTT); assay: Ex vivo anticoagulant effect, APTT in citrated human plasma
Source text: as §1, §2

[4] = tested on: FeCl3-induced occlusive thrombus in rat carotid artery; assay: Rat model of FeCl3-induced platelet-dependent arterial thrombosis; assay type: in vivo; conditions: for Incidence of Occlusion: single intravenous bolus 5 minutes before FeCl3, n = 6, 60 minutes, saline 6/6; for ED50: Rattus norvegicus, read-out: ED50 for thrombus prevention in the FeCl3 model of arterial thrombosis
Source text: Kurz, K. D., Main, B. W., and Sandusky, G. E., Thromb. […] In this model a platelet-rich, occlusive thrombus is formed in a segment of the rat carotid artery treated locally with a fresh solution of FeCl3 absorbed to a piece of filter paper. The FeCl3 is thought to diffuse into the treated segment of artery and causes de-endothelialization of the affected vessel surface. […] The effect of a test compound on the incidence of occlusive thrombus formation following the application of the FeCl3 is monitored by ultrasonic flowtometry and is used as the primary end point. The use of flowtometry to measure carotid artery blood flow, is a modification of the original procedure in which thermal detection of clot formation was employed. Kurz, K. D., Main, B. W., and Sandusky, G. E., Thromb.
The animals were prepared, anesthetized with Nembutal followed by the insertion of catheters for blood pressure monitoring, drug and anesthesia delivery. The left carotid artery was isolated by making a midline cervical incision followed by blunt dissection and spreading techniques to separate a 2 cm segment of the vessel from the carotid sheath. A silk suture is inserted under the proximal and distal ends of the isolated vessel to provide clearance for the placement of a ultrasonic flow probe (Transonic) around the proximal end of the vessel. The probe is then secured with a stationary arm.
Following surgery the animals were randomized in either a control (saline) or treatment group with test compound (Isomer B) with at least 6 animals per group per dose. The test compound was administered as a single intravenous bolus at the doses outlined in Table 3 after placement of the flow probe and 5 minutes prior to the thrombogenic stimulus. […] Blood pressure, blood flow, heart rate, and respiration were monitored for 60 minutes.
The incidence of occlusion (defined as the attainment of zero blood flow) was recorded as the primary end point and as a measure of the antithrombotic efficacy of Isomer B.

[5] = biological target: T1, human alpha-thrombin (Homo sapiens, UniProt P00734); conditions: Table 4, human alpha-thrombin
Protocol: Enzyme activity was determined using the chromogenic substrate Pefachrome t-PA (CH3 SO2 -D-hexahydrotyrosine-glycyl-L-Arginine-p-nitroanilide), obtained from Pentapharm Ltd. The substrate was reconstituted in deionized water prior to use. Purified human alpha-thrombin (3000U/mg specific activity) was obtained from Enzyme Research Laboratories, Inc. The buffer used for all assays was HBSA (10 mM HEPES, pH 7.5, 150 mM sodium chloride, 0.1%, bovine serum albumin).
Velocities of chromogenic substrate hydrolysis which occurred over 40 min was measured by the change in absorbance at 405 nm using a Thermo Max® Kinetic Microplate Reader. […] The extent of substrate hydrolysis was less than 5% over the course of this assay.

[6] = biological target: T1, human alpha-thrombin; assay: biochemical
Protocol: The buffer used for all assays was HBSA (10 mM HEPES, pH 7.5, 150 mM sodium chloride, 0.1% bovine serum albumin). […] Following a 30-minute incubation at ambient temperature, 50 microliters of the substrate at the concentrations specified below, was added to the wells yielding a final total volume of 200 microliters. The initial velocity of chromogenic substrate hydrolysis was measured by the change in absorbance at 405nm using a Thermo Max® Kinetic Microplate Reader over a 5 minute period in which less than 5% of the added substrate was utilized.
Thrombin catalytic activity was determined using the chromogenic substrate Pefachrome t-PA (CH3 SO2 -D-hexahydrotyrosine-glycyl-L-arginine-p-nitroanilide, obtained from Pentapharm Ltd.). The substrate was made up in deionized water followed by dilution in HBSA prior to the assay in which the final concentration was 300 micromolar (about 5-times Km). Purified human alpha-thrombin was obtained from Enzyme Research Laboratories, Inc. The enzyme was diluted into HBSA prior to the assay in which the final concentration was 0.25 nM.

[7] = tested on: thrombin; conditions: literature; cited from earlier work
[8] = literature; cited from earlier work
[9] = literature; cited from earlier work; remark: listed apart in the source

Structure (SMILES): N=C(N)N1CCCC(C[C@@H](C=O)NC(=O)CN2CCC[C@H](NS(=O)(=O)Cc3ccccc3)C2=O)C1 (single isomer, unassigned) [Isomer B]
- IC50 [1]: > 25000 nM
- prolongation of the APTT [2]: prolonged the APTT in a dose dependent manner
- concentration which caused a doubling of the control clotting time (APTT) ([3]; citrated human plasma, control clotting time 29 seconds, mean of two independent determinations): 9.1 µM
- prolongation of the APTT ([3]; human plasma): prolonged the APTT in a dose dependent manner
- Incidence of Occlusion ([4]; 0.3 mg/kg): 6/6
- Incidence of Occlusion ([4]; 1.0 mg/kg): 4/6
- Incidence of Occlusion ([4]; 3.0 mg/kg, p ≤ 0.05 from saline control by Fishers test): 0/6
- ED50 [4]: 1.4 mg/kg
- Ki [5]: 0.318 nM
- IC50 [6]: 0.9 nM

Structure (SMILES): CC1CNc2c(cccc2S(=O)(=O)N[C@@H](CCCNC(=N)N)C(=O)N2CC[C@@H](C)C[C@@H]2C(=O)O)C1 (stereo partly drawn) [Argatroban, 2R,4R-4-methyl-1-[N-2-(3-methyl-1,2,3,4-tetrahydro-8-quinolinesulfonyl)-L-argininal]-2-piperdinecarboxylic acid, reference compound]
- ED50 ([4]; dose that prevents complete thrombotic occlusion in 50% of animals tested): 3.8 mg/kg

Structure (SMILES): N=C(N)c1ccc(CC(=O)C(=O)O)cc1 [APPA, 4-amidinophenylpyruvic acid]
- selectivity of thrombin inhibition [7]: non-selective, inhibiting trypsin, plasmin and kallikrein
- toxicity [8]: low toxicity
- pharmacokinetics [9]: favourable pharmacokinetics

Structure (SMILES): CS(=O)(=O)O.CS(=O)(=O)O.N=C(N)Nc1ccc(C(=O)Oc2ccc3cc(C(=N)N)ccc3c2)cc1 [FUT 175, 6-amidino-2-naphthyl-4-guanidinobenzoate dimethanesulfonate]
- selectivity of thrombin inhibition [7]: non-selective
